BindingDB's records for doi:10.1016/j.chembiol.2014.09.011 (Astrazeneca R&D, 2014)

What was measured:
Experiment in all cases: AMPD Enzymatic Activity Assay
Details in all cases: pH 7.4
AMP deaminase 1 [1] = target: T1, AMP deaminase 1 (Homo sapiens, UniProt P23109)
T1 sequence (P23109 whole entry): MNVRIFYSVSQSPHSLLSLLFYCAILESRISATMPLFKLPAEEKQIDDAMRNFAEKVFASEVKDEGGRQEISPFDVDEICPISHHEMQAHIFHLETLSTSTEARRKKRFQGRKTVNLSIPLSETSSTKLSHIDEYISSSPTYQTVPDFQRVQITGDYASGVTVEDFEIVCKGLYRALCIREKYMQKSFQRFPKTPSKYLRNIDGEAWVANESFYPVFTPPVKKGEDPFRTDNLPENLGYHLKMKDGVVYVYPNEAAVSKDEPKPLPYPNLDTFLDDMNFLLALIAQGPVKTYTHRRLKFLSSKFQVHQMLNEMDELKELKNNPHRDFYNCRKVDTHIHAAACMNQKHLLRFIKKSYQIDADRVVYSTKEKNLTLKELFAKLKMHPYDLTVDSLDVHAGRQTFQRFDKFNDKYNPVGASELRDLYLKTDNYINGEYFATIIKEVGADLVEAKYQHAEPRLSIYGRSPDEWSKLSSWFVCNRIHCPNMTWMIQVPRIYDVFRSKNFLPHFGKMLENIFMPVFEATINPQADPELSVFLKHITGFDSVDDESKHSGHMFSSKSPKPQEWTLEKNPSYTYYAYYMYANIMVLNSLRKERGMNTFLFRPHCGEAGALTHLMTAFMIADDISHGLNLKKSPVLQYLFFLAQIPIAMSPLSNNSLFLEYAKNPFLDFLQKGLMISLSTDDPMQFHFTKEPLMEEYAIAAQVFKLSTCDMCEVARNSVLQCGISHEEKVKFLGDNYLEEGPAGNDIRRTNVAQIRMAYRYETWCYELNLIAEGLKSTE
Method: (§1) AMPD1 was added to buffer A (50 mM HEPES, 150 mM KCl, 5 mM MgCl2, and 0.5 mMglutathione [pH 7.4]) to a concentration of 10 nM. A substrate mix consistingof 2mMNADPH, 6mMa-ketoglutarate, 8mMAMP, and 15 U GDH was prepared in buffer A. Substrate mix ([…]) was added to the plate, followed by centrifugation and incubation for 1 hr. Detection was by absorbance at 340 nm following the conversion of NADPH to NADP+. Recombinant AMPD enzyme activity assays were performed in a 384-well format using the same conditions as described above, except the assay volume was […] and the AMP concentration for the AMPD2 assay was 8 mM. Different AMPD enzyme concentrations were used to have linear reactions: hAMPD1 (4 nM), hAMPD2 (38 nM), hAMPD3 (1 nM), rAMPD1 (116 nM), rAMPD2 (53 nM), rAMPD3 (31 nM), and mAMPD1 (816 nM).

AMP deaminase 1 [2] = target: T2, AMP deaminase 1 (Mus musculus, UniProt Q3V1D3)
T2 sequence (Q3V1D3 whole entry): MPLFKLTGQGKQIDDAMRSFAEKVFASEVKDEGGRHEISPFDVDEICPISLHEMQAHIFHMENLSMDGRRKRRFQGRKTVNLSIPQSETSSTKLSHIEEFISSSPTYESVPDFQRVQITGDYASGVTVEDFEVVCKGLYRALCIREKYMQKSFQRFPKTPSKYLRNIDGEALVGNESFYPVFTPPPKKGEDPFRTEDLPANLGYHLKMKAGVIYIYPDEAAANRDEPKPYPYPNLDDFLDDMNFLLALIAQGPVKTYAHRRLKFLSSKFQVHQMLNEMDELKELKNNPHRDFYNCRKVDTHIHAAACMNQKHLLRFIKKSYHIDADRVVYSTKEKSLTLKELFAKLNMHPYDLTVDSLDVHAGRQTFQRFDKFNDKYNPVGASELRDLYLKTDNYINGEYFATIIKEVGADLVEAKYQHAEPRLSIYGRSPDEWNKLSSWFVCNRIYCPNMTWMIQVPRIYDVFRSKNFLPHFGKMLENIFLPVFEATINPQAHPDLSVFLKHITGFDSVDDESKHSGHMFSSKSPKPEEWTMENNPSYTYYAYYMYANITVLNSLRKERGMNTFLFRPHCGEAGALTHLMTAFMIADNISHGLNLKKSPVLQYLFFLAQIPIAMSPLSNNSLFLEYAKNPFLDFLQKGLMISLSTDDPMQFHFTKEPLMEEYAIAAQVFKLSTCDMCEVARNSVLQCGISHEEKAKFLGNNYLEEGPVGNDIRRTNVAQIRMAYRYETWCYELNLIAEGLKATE
Method: as §1

AMP deaminase 2 = target: T3, AMP deaminase 2 (Rattus norvegicus, UniProt Q02356)
T3 sequence (Q02356 whole entry): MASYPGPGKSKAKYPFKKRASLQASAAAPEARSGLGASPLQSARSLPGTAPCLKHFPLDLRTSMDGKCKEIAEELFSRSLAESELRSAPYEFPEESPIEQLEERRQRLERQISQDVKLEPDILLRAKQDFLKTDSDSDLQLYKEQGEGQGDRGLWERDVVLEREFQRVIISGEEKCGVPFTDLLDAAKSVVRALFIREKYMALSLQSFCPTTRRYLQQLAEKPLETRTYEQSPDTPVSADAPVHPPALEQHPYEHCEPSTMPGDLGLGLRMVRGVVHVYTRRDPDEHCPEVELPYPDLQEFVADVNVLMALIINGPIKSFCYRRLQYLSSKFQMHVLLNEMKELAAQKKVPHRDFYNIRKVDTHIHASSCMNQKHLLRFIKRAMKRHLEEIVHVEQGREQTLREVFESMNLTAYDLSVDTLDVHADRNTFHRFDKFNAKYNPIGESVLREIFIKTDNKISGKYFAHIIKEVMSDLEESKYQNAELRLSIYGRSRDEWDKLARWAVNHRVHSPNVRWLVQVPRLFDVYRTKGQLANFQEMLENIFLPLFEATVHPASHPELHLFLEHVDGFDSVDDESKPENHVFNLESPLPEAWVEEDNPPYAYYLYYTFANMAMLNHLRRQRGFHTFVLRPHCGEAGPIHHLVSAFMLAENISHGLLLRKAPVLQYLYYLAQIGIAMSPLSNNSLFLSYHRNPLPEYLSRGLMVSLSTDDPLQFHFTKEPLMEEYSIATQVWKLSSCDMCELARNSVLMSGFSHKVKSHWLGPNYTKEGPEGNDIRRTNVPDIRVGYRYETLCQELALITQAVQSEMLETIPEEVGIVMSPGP
Method: as §1

AMP deaminase 1 [3] = target: T4, AMP deaminase 1 (Rattus norvegicus, UniProt P10759)
T4 sequence (P10759 whole entry): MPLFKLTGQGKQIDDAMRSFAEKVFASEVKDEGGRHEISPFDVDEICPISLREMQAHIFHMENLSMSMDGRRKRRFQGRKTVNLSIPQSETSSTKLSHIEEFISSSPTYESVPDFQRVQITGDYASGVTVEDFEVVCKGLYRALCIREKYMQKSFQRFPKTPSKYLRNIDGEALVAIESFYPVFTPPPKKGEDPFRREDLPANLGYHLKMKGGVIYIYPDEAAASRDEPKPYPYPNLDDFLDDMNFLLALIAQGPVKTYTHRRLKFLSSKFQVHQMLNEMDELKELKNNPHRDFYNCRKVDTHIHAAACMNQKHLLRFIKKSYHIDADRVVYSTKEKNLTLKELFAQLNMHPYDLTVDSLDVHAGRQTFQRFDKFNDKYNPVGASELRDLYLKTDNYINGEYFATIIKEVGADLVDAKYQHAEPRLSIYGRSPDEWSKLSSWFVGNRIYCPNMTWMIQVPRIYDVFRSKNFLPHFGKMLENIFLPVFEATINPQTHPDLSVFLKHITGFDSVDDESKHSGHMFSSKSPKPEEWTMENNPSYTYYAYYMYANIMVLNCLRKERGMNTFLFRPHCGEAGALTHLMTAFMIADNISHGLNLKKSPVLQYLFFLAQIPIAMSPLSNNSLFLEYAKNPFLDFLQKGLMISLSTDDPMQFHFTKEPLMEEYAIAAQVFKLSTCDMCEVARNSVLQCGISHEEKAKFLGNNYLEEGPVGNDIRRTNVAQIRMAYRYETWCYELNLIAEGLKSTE
Method: as §1

| SMILES | IC50 (AMP deaminase 1 [1]) | IC50 (AMP deaminase 1 [2]) | IC50 (AMP deaminase 2) | IC50 (AMP deaminase 1 [3]) |
| --- | --- | --- | --- | --- |
| C[C@@H](NCc1ccc(-c2ccc(C(=O)O)cn2)cc1)c1cccc2ccccc12 [6-[4-({[(1R)-1-(naphthalen-1-yl)ethyl]amino}methyl)phenyl]pyridine-3-carboxylic acid (Compound 1)] | 620 nM |  |  |  |
| COc1cc(-c2ccc(CN[C@H](C)c3cccc4ccncc34)cc2)ccc1C(=O)O [4-[4-({[(1R)-1-(isoquinolin-8-yl)ethyl]amino}methyl)phenyl]-2-methoxybenzoic acid (Compound 4)] | 24 nM | 20 nM | 300 nM | 20 nM |
